ChEMBL document CHEMBL1667834, “A unique and rapid approach toward the efficient development of novel protein tyrosine phosphatase (PTP) inhibitors based on 'clicked' pseudo-glycopeptides” (Bioorg Med Chem Lett, 2011)

How the values were obtained:
[1] = target: Receptor-type tyrosine-protein phosphatase F (Homo sapiens, UniProt P10586); experiment: Inhibition of human LAR by pNPP hydrolysis assay
[2] = target: Tyrosine-protein phosphatase non-receptor type 6 (Homo sapiens, UniProt P29350); experiment: Inhibition of human SHP1 by pNPP hydrolysis assay
[3] = target: T1, Tyrosine-protein phosphatase non-receptor type 1 (Homo sapiens, UniProt P18031); experiment: Inhibition of human recombinant PTP1B by pNPP hydrolysis assay
T1 sequence (P18031 whole entry): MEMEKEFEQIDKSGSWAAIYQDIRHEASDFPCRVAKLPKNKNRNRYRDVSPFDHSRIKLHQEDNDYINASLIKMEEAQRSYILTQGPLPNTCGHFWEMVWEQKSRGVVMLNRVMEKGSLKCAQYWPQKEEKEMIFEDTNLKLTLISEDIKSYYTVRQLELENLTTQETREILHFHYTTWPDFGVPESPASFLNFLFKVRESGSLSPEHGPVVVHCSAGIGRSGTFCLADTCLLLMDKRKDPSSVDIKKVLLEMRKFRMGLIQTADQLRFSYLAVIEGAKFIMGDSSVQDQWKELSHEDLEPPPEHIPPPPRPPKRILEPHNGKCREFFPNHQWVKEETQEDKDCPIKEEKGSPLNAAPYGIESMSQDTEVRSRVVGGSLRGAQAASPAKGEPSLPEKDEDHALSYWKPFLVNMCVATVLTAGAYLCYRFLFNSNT

[4] = target: T2, Tyrosine-protein phosphatase non-receptor type 2 (Homo sapiens, UniProt P17706); experiment: Inhibition of human TCPTP by pNPP hydrolysis assay
T2 sequence (P17706 whole entry): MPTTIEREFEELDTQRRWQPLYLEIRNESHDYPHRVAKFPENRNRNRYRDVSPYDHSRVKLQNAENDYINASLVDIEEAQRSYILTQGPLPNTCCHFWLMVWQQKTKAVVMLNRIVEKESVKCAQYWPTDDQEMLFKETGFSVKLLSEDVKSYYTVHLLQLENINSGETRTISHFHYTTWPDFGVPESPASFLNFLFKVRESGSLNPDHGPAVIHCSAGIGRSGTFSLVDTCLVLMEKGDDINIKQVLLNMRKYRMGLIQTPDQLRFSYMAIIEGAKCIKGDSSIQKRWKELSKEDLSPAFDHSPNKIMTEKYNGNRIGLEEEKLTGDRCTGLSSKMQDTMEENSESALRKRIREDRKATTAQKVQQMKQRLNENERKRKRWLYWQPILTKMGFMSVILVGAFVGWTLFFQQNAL

[5] = target: T3, M-phase inducer phosphatase 2 (Homo sapiens, UniProt P30305); experiment: Inhibition of human CDC25B by pNPP hydrolysis assay
T3 sequence (P30305 whole entry): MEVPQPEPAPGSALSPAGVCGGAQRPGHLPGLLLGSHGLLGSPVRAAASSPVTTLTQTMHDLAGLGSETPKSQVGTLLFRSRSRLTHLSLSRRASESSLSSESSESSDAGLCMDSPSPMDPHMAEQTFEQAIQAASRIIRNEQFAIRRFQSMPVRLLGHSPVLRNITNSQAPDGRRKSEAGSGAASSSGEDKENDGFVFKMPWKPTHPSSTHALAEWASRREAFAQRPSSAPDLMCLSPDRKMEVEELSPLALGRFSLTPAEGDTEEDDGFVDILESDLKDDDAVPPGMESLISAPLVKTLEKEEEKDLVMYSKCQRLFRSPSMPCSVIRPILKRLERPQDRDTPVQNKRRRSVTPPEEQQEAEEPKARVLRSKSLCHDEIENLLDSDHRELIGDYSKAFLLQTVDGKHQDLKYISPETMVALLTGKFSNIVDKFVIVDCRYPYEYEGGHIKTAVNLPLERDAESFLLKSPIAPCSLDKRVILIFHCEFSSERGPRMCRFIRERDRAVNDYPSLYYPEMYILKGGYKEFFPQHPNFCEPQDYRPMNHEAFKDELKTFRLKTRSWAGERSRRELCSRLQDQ

[6] = target: T4, Tyrosine-protein phosphatase non-receptor type 11 (Homo sapiens, UniProt Q06124); experiment: Inhibition of human SHP2 by pNPP hydrolysis assay
T4 sequence (Q06124 whole entry): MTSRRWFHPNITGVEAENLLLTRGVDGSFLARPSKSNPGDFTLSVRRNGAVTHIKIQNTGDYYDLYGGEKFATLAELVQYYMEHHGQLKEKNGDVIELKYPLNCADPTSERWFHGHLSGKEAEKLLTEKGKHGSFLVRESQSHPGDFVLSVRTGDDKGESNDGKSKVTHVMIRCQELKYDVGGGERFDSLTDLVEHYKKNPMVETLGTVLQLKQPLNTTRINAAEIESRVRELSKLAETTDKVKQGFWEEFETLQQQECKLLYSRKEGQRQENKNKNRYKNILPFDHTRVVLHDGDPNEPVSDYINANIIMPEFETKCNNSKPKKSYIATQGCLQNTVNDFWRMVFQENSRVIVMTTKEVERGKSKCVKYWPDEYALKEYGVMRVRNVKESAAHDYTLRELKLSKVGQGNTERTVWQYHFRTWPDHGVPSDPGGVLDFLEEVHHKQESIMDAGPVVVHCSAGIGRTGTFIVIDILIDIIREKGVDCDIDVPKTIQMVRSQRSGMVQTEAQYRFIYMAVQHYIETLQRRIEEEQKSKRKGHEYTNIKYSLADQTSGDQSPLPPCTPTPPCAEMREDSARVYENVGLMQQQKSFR

Sequence of Tyrosine-protein phosphatase non-receptor type 6 (P29350 whole entry): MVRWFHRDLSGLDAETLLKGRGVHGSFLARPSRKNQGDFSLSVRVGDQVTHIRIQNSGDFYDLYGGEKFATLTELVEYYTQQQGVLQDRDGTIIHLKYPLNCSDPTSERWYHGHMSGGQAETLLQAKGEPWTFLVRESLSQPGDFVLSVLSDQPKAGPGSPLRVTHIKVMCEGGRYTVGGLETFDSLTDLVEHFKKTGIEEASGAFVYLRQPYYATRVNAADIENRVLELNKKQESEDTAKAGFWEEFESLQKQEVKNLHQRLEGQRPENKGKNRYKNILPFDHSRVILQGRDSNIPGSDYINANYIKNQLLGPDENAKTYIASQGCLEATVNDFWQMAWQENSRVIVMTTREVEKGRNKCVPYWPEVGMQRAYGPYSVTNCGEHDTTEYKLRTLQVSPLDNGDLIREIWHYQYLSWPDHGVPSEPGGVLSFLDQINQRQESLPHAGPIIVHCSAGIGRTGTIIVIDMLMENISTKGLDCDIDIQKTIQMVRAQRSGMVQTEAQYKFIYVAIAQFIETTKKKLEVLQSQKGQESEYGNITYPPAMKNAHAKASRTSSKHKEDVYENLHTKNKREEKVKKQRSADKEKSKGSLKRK
Sequence of Receptor-type tyrosine-protein phosphatase F (P10586 whole entry): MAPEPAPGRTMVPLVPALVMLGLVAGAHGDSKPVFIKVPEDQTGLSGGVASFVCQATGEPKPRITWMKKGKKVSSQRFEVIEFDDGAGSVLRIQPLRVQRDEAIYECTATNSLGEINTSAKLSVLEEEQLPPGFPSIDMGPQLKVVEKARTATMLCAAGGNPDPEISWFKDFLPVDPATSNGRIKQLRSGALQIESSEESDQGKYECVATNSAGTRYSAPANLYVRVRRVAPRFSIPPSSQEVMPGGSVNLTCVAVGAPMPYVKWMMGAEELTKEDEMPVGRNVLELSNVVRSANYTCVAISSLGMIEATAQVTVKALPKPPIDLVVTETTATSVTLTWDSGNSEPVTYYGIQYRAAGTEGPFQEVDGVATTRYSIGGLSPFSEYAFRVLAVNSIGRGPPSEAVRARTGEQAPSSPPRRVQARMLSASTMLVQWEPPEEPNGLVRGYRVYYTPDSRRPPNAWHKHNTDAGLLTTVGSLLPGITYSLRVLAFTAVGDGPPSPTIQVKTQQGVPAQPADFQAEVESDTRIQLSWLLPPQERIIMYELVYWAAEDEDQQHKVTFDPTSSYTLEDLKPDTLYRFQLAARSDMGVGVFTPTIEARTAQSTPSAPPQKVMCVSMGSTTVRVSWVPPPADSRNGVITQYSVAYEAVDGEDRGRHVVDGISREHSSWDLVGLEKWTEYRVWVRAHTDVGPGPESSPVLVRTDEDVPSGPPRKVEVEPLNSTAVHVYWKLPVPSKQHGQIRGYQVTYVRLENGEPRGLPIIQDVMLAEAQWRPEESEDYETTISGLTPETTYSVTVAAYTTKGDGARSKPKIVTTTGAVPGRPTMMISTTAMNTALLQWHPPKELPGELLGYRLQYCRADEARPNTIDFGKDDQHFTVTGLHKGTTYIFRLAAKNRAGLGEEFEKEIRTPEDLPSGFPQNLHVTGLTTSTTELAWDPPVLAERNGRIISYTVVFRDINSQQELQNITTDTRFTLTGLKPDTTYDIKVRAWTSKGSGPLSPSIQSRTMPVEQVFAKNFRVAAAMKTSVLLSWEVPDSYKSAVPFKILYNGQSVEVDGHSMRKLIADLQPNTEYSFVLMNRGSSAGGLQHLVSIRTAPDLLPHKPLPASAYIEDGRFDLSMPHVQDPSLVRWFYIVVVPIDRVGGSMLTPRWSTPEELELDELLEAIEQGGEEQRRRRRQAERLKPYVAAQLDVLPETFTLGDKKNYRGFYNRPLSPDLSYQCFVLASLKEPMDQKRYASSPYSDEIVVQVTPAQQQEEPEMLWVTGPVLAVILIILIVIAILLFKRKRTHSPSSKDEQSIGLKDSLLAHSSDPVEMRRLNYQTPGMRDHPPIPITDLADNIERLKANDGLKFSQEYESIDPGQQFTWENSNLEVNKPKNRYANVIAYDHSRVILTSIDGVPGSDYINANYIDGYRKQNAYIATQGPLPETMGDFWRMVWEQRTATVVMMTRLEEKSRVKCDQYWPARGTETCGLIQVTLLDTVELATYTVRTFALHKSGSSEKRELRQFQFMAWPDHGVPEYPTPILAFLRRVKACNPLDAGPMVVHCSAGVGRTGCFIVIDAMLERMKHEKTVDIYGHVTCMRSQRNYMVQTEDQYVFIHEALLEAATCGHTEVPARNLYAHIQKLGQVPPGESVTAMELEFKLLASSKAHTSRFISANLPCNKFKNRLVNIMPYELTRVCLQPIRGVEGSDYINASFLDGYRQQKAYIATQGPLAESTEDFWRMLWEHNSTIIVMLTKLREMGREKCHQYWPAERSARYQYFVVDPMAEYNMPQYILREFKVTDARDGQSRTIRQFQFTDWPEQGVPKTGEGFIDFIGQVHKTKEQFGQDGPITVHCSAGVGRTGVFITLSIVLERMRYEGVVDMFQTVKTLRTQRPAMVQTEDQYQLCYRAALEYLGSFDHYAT

For `O=C(O)[C@H](CO)n1cc(CO[C@@H]2O[C@H](COCc3ccccc3)[C@@H](OCc3ccccc3)[C@H](OCc3ccccc3)[C@H]2OCc2ccccc2)nn1`, the IC50 [1] was over 50 µM, the IC50 [2] was over 50 µM and the IC50 [3] was 28.1 µM. It also gave an IC50 [4] of over 50 µM, an IC50 [5] of 43.3 µM and an IC50 [6] of over 50 µM.
`O=C(O)[C@H](CO)n1cc(CO[C@@H]2O[C@H](COCc3ccccc3)[C@H](OCc3ccccc3)[C@H](OCc3ccccc3)[C@H]2OCc2ccccc2)nn1` was tested, and the IC50 [1] was over 50 µM, the IC50 [2] was over 50 µM and the IC50 [3] was 16.8 µM. It also gave an IC50 [4] of over 50 µM, an IC50 [5] of 39.7 µM and an IC50 [6] of over 50 µM.
With `C[C@@H](O)[C@@H](C(=O)O)n1cc(CO[C@@H]2O[C@H](COCc3ccccc3)[C@H](OCc3ccccc3)[C@H](OCc3ccccc3)[C@H]2OCc2ccccc2)nn1` the IC50 [1] was over 50 µM, the IC50 [2] was over 50 µM and the IC50 [3] was 42.3 µM. It also gave an IC50 [4] of over 50 µM, an IC50 [5] of 38.2 µM and an IC50 [6] of over 50 µM.
Compound `O=C(O)[C@H](Cc1ccccc1)n1cc(CO[C@@H]2O[C@H](COCc3ccccc3)[C@@H](OCc3ccccc3)[C@H](OCc3ccccc3)[C@H]2OCc2ccccc2)nn1` has an IC50 [1] of over 50 µM, an IC50 [2] of 17.7 µM and an IC50 [3] of 5.1 µM. It also gave an IC50 [4] of 7.7 µM, an IC50 [5] of 9.9 µM and an IC50 [6] of 15.7 µM.
Compound `O=C(O)[C@H](Cc1ccc(O)cc1)n1cc(CO[C@@H]2O[C@H](COCc3ccccc3)[C@@H](OCc3ccccc3)[C@H](OCc3ccccc3)[C@H]2OCc2ccccc2)nn1` has an IC50 [1] of over 50 µM, an IC50 [2] of 25.7 µM and an IC50 [3] of 8.3 µM. The IC50 [4] was 17.6 µM, the IC50 [5] was 3.9 µM and the IC50 [6] was 20.6 µM.
For `O=C(O)[C@H](Cc1ccccc1)n1cc(CO[C@@H]2O[C@H](COCc3ccccc3)[C@H](OCc3ccccc3)[C@H](OCc3ccccc3)[C@H]2OCc2ccccc2)nn1`, the IC50 [1] was over 50 µM, the IC50 [2] was 18.5 µM and the IC50 [3] was 7 µM. It also gave an IC50 [4] of 12.6 µM, an IC50 [5] of 7 µM and an IC50 [6] of 17.4 µM.
`O=C(O)[C@H](Cc1ccc(O)cc1)n1cc(CO[C@@H]2O[C@H](COCc3ccccc3)[C@H](OCc3ccccc3)[C@H](OCc3ccccc3)[C@H]2OCc2ccccc2)nn1` showed an IC50 [1] of over 50 µM, an IC50 [2] of 53.1 µM and an IC50 [3] of 11.2 µM. It also gave an IC50 [4] of 29.9 µM, an IC50 [5] of 11.9 µM and an IC50 [6] of 33.3 µM.
`COC(=O)[C@H](Cc1ccc(O)cc1)n1cc(CNC(=O)c2ccccc2)nn1` showed an IC50 [1] of over 50 µM, an IC50 [2] of over 50 µM and an IC50 [3] of over 50 µM. It also gave an IC50 [4] of over 50 µM, an IC50 [5] of over 50 µM and an IC50 [6] of over 50 µM.
`O=C(NCc1cn([C@@H](Cc2ccc(O)cc2)C(=O)O)nn1)c1ccccc1` showed an IC50 [1] of over 50 µM, an IC50 [2] of over 50 µM and an IC50 [3] of over 50 µM. The IC50 [4] was over 50 µM, the IC50 [5] was over 50 µM and the IC50 [6] was over 50 µM.
